Drawing on patent publication US20240199649A1 (Biosplice Therapeutics, Inc., priority 2022, published 2024), this text covers IC50 for 18 compounds.

The term IC50 denotes the concentration that inhibits the measured activity by half.

Structures are written as SMILES.

This experiment deals with recombinant DYRK1A kinase (Homo sapiens (Human), UniProt Q13627). In words: DYRK1A kinase assay (Ser/Thr 18 peptide Z-lyte FRET assay). Conditions: DYRK1A 0.25 μg/mL, ATP 15 μM, Ser/Thr peptide 18 4 μM; one hour at room temperature; 11-point dose-response, duplicate. Type of experiment: biochemical. A digest of the protocol: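 Z-lyte FRET assay on Ser/Thr 18 peptide, kinase activity read as coumarin/fluorescein emission ratio; compounds incubated 1 h at room temperature, then development reagent 1 h, in duplicate. Phosphorylated and unphosphorylated peptide served as controls; IC50 by non-linear regression of dose-response curves.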
For `CNc1nc(N[C@H]2CCN(C(C)=O)C[C@H]2F)nn2ccc(-c3ccc4ncn(CCF)c4n3)c12` [Compound 1002, 1-((3R,4S)-3-Fluoro-4-((5-(3-(2-fluoroethyl)-3H-imidazo[4,5-b]pyridin-5-yl)-4-(methylamino)pyrrolo[2,1-f][1,2,4]triazin-2-yl)amino)piperidin-1-yl)ethan-1-one], the IC50 was 1.1 nM. Then `CNc1nc(N[C@H]2CCN(C3COC3)C[C@H]2F)nn2ccc(-c3ccc4ncn(CCF)c4n3)c12` [Compound 1003, N^2-((3R,4S)-3-Fluoro-1-(oxetan-3-yl)piperidin-4-yl)-5-(3-(2-fluoroethyl)-3H-imidazo[4,5-b]pyridin-5-yl)-N4-methylpyrrolo[2,1-f][1,2,4]triazine-2,4-diamine], with 1.1 nM; and `CNc1nc(N[C@@H]2CCN(C)CC2(F)F)nn2ccc(-c3ccc4ncn(CCF)c4n3)c12` [Compound 1004, (R)—N^2-(3,3-Difluoro-1-methylpiperidin-4-yl)-5-(3-(2-fluoroethyl)-3H-imidazo[4,5-b]pyridin-5-yl)-N^4-methylpyrrolo[2,1-f][1,2,4]triazine-2,4-diamine], with 1.1 nM. With `CNc1nc(N[C@@H]2CCN(C3COC3)CC2(F)F)nn2ccc(-c3ccc4ncn(CCF)c4n3)c12` [Compound 1005, (R)—N^2-(3,3-Difluoro-1-(oxetan-3-yl)piperidin-4-yl)-5-(3-(2-fluoroethyl)-3H-imidazo[4,5-b]pyridin-5-yl)-N^4-methylpyrrolo[2,1-f][1,2,4]triazine-2,4-diamine], the IC50 was determined as 0.9 nM.

In the case of `CNc1nc(NC2CCC(F)(F)CC2)nn2ccc(-c3ccc4ncn(CC(F)F)c4n3)c12` [Compound 1007, N^2-(4,4-Difluorocyclohexyl)-5-(3-(2,2-difluoroethyl)-3H-imidazo[4,5-b]pyridin-5-yl)-N^4-methylpyrrolo[2,1-f][1,2,4]triazine-2,4-diamine], the IC50 was 4.1 nM. For `CNc1nc(N[C@H]2CC[C@@](C)(O)CC2)nn2ccc(-c3ccc4ncn(CC(F)F)c4n3)c12` [Compound 1008, (1r,4r)-4-((5-(3-(2,2-Difluoroethyl)-3H-imidazo[4,5-b]pyridin-5-yl)-4-(methylamino)pyrrolo[2,1-f][1,2,4]triazin-2-yl)amino)-1-methylcyclohexan-1-ol], the IC50 came to 0.4 nM.

In the case of `CNc1nc(N[C@H]2CCN(C3COC3)C[C@H]2F)nn2ccc(-c3ccc4ncn(CC(F)F)c4n3)c12` [Compound 1009, 5-(3-(2,2-Difluoroethyl)-3H-imidazo[4,5-b]pyridin-5-yl)-N^2-((3R,4S)-3-fluoro-1-(oxetan-3-yl)piperidin-4-yl)-N4-methylpyrrolo[2,1-f][1,2,4]triazine-2,4-diamine], the IC50 is 2 nM.

Regarding `CNc1nc(N[C@@H]2CCN(C(C)=O)CC2(F)F)nn2ccc(-c3ccc4ncn(CC(F)F)c4n3)c12` [Compound 1010, (R)-1-(4-((5-(3-(2,2-Difluoroethyl)-3H-imidazo[4,5-b]pyridin-5-yl)-4-(methylamino)pyrrolo[2,1-f][1,2,4]triazin-2-yl)amino)-3,3-difluoropiperidin-1-yl)ethan-1-one], the IC50 came to 0.5 nM.

As for `CNc1nc(N[C@@H]2CCN(C)CC2(F)F)nn2ccc(-c3ccc4ncn(CC(F)F)c4n3)c12` [Compound 1011, (R)—N^2-(3,3-Difluoro-1-methylpiperidin-4-yl)-5-(3-(2,2-difluoroethyl)-3H-imidazo[4,5-b]pyridin-5-yl)-N^4-methylpyrrolo[2,1-f][1,2,4]triazine-2,4-diamine], the IC50 was determined as 1.4 nM. For `CNc1nc(N[C@H]2CCN(C(C)=O)C[C@H]2F)nn2ccc(-c3ccc4ncn(CC(F)F)c4n3)c12` [Compound 1012, 1-((3R,4S)-4-((5-(3-(2,2-Difluoroethyl)-3H-imidazo[4,5-b]pyridin-5-yl)-4-(methylamino)pyrrolo[2,1-f][1,2,4]triazin-2-yl)amino)-3-fluoropiperidin-1-yl)ethan-1-one], the IC50 was 0.5 nM. For the compound `CNc1nc(N[C@@H]2CCN(C3COC3)CC2(F)F)nn2ccc(-c3ccc4ncn(CC(F)F)c4n3)c12` [Compound 1013, (R)—N^2-(3,3-Difluoro-1-(oxetan-3-yl)piperidin-4-yl)-5-(3-(2,2-difluoroethyl)-3H-imidazo[4,5-b]pyridin-5-yl)-N4-methylpyrrolo[2,1-f][1,2,4]triazine-2,4-diamine], the IC50 came out at 0.9 nM.

For `CNc1nc(NC2CCC(F)(F)CC2)nn2ccc(-c3ccc4ncn(CC(F)(F)F)c4n3)c12` [Compound 1014, N^2-(4,4-Difluorocyclohexyl)-N^4-methyl-5-(3-(2,2,2-trifluoroethyl)-3H-imidazo[4,5-b]pyridin-5-yl)pyrrolo[2,1-f][1,2,4]triazine-2,4-diamine], the IC50 amounted to 10.1 nM. As to `CNc1nc(N[C@H]2CCN(C(C)=O)C[C@H]2F)nn2ccc(-c3ccc4ncn(CC(F)(F)F)c4n3)c12` [Compound 1015, 1-((3R,4S)-3-Fluoro-4-((4-(methylamino)-5-(3-(2,2,2-trifluoroethyl)-3H-imidazo[4,5-b]pyridin-5-yl)pyrrolo[2,1-f][1,2,4]triazin-2-yl)amino)piperidin-1-yl)ethan-1-one], the IC50 came out at 1.4 nM. `CNc1nc(N[C@H]2CCN(C3COC3)C[C@H]2F)nn2ccc(-c3ccc4ncn(CC(F)(F)F)c4n3)c12` [Compound 1016, N^2-((3R,4S)-3-Fluoro-1-(oxetan-3-yl)piperidin-4-yl)-N^4-methyl-5-(3-(2,2,2-trifluoroethyl)-3H-imidazo[4,5-b]pyridin-5-yl)pyrrolo[2,1-f][1,2,4]triazine-2,4-diamine]: the half-maximal inhibitory concentration (IC50) is 1.5 nM. With `CNc1nc(N[C@@H]2CCN(C)CC2(F)F)nn2ccc(-c3ccc4ncn(CC(F)(F)F)c4n3)c12` [Compound 1017, (R)—N^2-(3,3-Difluoro-1-methylpiperidin-4-yl)-N^4-methyl-5-(3-(2,2,2-trifluoroethyl)-3H-imidazo[4,5-b]pyridin-5-yl)pyrrolo[2,1-f][1,2,4]triazine-2,4-diamine] the figure was 1.7 nM; with `CNc1nc(N[C@@H]2CCN(C(C)=O)CC2(F)F)nn2ccc(-c3ccc4ncn(CC(F)(F)F)c4n3)c12` [Compound 1018, (R)-1-(3,3-Difluoro-4-((4-(methylamino)-5-(3-(2,2,2-trifluoroethyl)-3H-imidazo[4,5-b]pyridin-5-yl)pyrrolo[2,1-f][1,2,4]triazin-2-yl)amino)piperidin-1-yl)ethan-1-one], 1.6 nM.

As to `CNc1nc(N[C@@H]2CCN(C3COC3)CC2(F)F)nn2ccc(-c3ccc4ncn(CC(F)(F)F)c4n3)c12` [Compound 1019, (R)—N^2-(3,3-Difluoro-1-(oxetan-3-yl)piperidin-4-yl)-N^4-methyl-5-(3-(2,2,2-trifluoroethyl)-3H-imidazo[4,5-b]pyridin-5-yl)pyrrolo[2,1-f][1,2,4]triazine-2,4-diamine], the IC50 stood at 1.7 nM.

With `CNc1nc(N[C@H]2CCN(C(C)=O)C[C@H]2F)nn2ccc(-c3ccc4nc(C)n(CCF)c4n3)c12` [Compound 1020, 1-((3R,4S)-3-Fluoro-4-((5-(3-(2-fluoroethyl)-2-methyl-3H-imidazo[4,5-b]pyridin-5-yl)-4-(methylamino)pyrrolo[2,1-f][1,2,4]triazin-2-yl)amino)piperidin-1-yl)ethan-1-one], the IC50 was 2.1 nM.
